Test results as given in patent US20260274856A1, “COVALENT CEREBLON LIGANDS” (C4 THERAPEUTICS, INC., priority 2023, published 2026).
Where two headings read alike, the source gives them in different places.

What was measured:
[1] = system: A375—NRASQ^61K cells (cell line A375.11); test: CTGlo (CellTiter-Glo 2.0) Cell Viability Assay; assay type: cell-based
Description: Compounds of the present invention were tested for their effect on the viability of A375—NRASQ^61K cells by quantification of ATP using the CellTiter-Glo® 2.0 Cell Viability Assay (Catalog No. G9243, Promega, Madison, WI, USA). This assay produces a luminescent signal in the presence of ATP, which is indicative of metabolically active cells, making the luminescence readout proportional to the number of viable cells. A375—NRASQ^61K cells, also referred to here as cell line A375.11, (harboring BRAF homozygous V600E mutation and NRAS homozygous Q61K mutation) were purchased from ATCC (Catalog No. CRL-1619IG-2, Manassas, VA, USA).
Cells were also plated to a 384-well plate with no compound treatment, to which CellTiter-Glo® reagent was added and luminescence was read right after plating to act as a baseline signal at time of plating (To).
DMSO treated cells with no CellTiter-Glo® reagent added were used as the background or positive control (P). Viability was determined by subtracting out the average background signal (P) and normalized to the average untreated signal (N) set at 100%.

GSPT1 = GSPT1 (Homo sapiens, UniProt P15170+Q96SW2); test: GSPT1 HiBiT Degradation Assay in 293T.114 cells; conditions: for HIBIT-Degradation 293T.114 GSPT1 24 hours IP nM / DC50: 293T.114 cells, 24 hours; for HIBIT-Degradation 293T.114 GSPT1 24 hours IP nM: inflection point of the dose-response curve; for DC50: read-out: HIBIT-Degradation 293T.114 GSPT1 24 hours DC50 nM; for Emax: read-out: HIBIT-Degradation 293T.114 GSPT1 24 hours Emax
Sequence of GSPT1 (Q96SW2 whole entry): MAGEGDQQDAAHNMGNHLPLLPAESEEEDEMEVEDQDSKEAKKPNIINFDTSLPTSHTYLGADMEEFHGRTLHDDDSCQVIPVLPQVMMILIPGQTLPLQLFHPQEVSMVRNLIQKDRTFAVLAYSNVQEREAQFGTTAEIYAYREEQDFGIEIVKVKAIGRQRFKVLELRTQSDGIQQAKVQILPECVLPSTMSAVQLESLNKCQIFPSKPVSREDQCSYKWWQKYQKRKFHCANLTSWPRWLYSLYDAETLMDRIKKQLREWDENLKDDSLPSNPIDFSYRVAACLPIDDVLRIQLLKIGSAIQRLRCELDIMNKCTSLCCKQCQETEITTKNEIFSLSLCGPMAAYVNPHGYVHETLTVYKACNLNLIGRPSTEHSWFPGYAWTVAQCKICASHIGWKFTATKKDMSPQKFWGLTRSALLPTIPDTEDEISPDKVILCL
Sequence of GSPT1 (Q16531 2-1140, further chain): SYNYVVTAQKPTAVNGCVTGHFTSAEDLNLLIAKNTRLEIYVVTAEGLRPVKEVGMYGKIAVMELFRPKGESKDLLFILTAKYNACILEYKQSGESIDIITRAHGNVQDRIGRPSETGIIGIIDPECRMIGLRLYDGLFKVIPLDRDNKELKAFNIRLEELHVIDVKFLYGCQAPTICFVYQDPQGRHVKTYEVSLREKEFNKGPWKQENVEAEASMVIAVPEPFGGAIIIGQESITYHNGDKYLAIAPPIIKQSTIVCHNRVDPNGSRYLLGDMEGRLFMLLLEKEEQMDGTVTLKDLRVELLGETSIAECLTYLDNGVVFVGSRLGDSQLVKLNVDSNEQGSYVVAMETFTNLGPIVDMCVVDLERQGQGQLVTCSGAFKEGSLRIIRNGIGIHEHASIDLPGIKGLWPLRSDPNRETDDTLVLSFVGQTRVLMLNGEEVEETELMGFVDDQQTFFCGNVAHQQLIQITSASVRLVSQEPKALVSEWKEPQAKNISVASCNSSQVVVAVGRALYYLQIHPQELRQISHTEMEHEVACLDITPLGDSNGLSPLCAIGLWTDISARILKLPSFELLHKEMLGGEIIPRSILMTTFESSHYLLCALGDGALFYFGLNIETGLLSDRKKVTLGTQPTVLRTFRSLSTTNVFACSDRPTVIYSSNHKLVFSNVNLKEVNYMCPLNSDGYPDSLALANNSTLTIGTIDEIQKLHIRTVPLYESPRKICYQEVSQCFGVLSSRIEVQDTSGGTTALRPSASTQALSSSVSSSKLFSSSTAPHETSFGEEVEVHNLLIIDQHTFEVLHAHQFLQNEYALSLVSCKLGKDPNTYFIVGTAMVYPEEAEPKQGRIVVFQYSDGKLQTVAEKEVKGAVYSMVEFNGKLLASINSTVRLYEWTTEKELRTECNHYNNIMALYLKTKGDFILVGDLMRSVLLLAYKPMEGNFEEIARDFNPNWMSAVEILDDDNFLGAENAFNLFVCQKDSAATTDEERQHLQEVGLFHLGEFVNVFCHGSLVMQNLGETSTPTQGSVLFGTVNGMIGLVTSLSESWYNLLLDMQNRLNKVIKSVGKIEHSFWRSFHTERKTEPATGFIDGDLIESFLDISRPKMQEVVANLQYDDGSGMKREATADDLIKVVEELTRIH
Sequence of GSPT1 (P15170 whole entry): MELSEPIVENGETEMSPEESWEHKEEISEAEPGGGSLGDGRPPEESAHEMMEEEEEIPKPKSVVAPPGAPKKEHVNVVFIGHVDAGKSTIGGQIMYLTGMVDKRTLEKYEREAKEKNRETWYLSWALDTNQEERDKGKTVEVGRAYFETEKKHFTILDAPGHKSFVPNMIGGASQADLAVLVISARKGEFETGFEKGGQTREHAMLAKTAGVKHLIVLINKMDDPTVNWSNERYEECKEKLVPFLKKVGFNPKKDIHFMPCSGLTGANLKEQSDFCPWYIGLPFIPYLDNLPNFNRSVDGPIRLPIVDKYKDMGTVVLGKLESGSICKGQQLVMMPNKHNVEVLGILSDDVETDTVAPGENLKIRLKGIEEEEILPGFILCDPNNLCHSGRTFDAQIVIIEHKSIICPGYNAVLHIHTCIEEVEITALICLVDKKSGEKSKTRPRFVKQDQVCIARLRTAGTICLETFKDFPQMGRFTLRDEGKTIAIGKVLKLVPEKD
Description: Upon cell lysis and addition of the complementing LgBiT polypeptide and its substrate, the HiBiT polypeptide on GSPT1 allows reconstitution of an enzyme that activates its substrate to produce a luminescent signal that is directly proportional to the amount of HiBiT-tagged GSPT1. […] Cell culture flasks and 384-well microplates were acquired from VWR (Radnor, PA, USA).
Cellular GSPT1 protein level was determined based on quantification of luminescent signal using the Nano-Glo® HiBiT Lytic Assay kit (Promega). Following the 24 hr treatment time, Nano-Glo® HiBiT Lytic Assay reagents were added to the cells per the manufacturer's instructions by adding 30 µl of reagent per well, and the luminescence signal was acquired on the PHERAstar plate reader (BMG Labtech, Ortenberg, Germany). Cells treated with DMS0 only (no test compound treatment) were used as the negative control (N). Media only (no cells added) withNano-Glo reagent additionwasused as the background orpositive control (P). The percent response of compound treated samples were calculated by subtracting out the 5 background signal (P) and normalizing to the DMS0 control (N) as follows. 0% Response=100 x (Treated Signal - Average (P))/(Average (N) - Average (P)).
Data were analyzed with a 4-parameter logistic fit to generate sigmoidal dose-response curves. DC50 values were computed as the concentrations where the fitted curves cross the 5000 response level.

[2] = 96 h, IP, read-out: CTGlo A375.11 96 hours IP
[3] = 96 hours, lowest % viability achieved
[4] = half-maximal inhibition of cell growth, table title: A375.11 96 hours, read-out: CTGlo A375.11 96 hours GI50
[5] = 96 hours, IP, read-out: CTGlo A375.11 96 hours IP

SMILES | GI50 [1, 2] [µM] | Emax [1, 3] [%] | GI50 [1, 4] [µM] | other results
CCN(C)S(=O)(=O)Nc1ccc(F)c(Oc2ccc3ncn([C@@H]4COC5(CCN(C(=O)CN6CCC(c7ccc(NC8CCC(=O)NC8=O)cc7S(=O)(=O)F)CC6)CC5)C4)c(=O)c3c2)c1C#N (stereo partly drawn) [drawing 1177] | > 10 | 60 to 95 | > 10 | 
CCN(C)S(=O)(=O)Nc1ccc(F)c(Oc2ccc3ncn([C@H]4COC5(CCN(C(=O)CN6CCC(c7ccc(NC8CCC(=O)NC8=O)cc7S(=O)(=O)F)CC6)CC5)C4)c(=O)c3c2)c1C#N (stereo partly drawn) [drawing 1178] | > 10 | 60 to 95 | > 10 | 
CCN(C)S(=O)(=O)Nc1ccc(F)c(Oc2ccc3ncn([C@H]4COC5(CCN(C(=O)CN6CCC(c7ccc(OC8CCC(=O)NC8=O)cc7OS(=O)(=O)F)CC6)CC5)C4)c(=O)c3c2)c1C#N (stereo partly drawn) [drawing 1179] | 1 to 10 | 60 to 95 | > 10 | 
CCN(C)S(=O)(=O)Nc1ccc(F)c(Oc2ccc3ncn([C@H]4COC5(CCN(C(=O)CN6CCC(c7ccc(N8CCC(=O)NC8=O)cc7OS(=O)(=O)F)CC6)CC5)C4)c(=O)c3c2)c1C#N [drawing 1180] | 1 to 10 | 60 to 95 | > 10 | 
CCN(C)S(=O)(=O)Nc1ccc(F)c(Oc2ccc3ncn([C@H]4COC5(CCN(C(=O)CN6CCC(c7ccc(OC8CCC(=O)NC8=O)cc7S(=O)(=O)F)CC6)CC5)C4)c(=O)c3c2)c1C#N (stereo partly drawn) [drawing 1181] | > 10 | 60 to 95 | > 10 | 
CCN(C)S(=O)(=O)Nc1ccc(F)c(Oc2ccc3ncn([C@@H]4COC5(CCN(C(=O)CN6CCC(c7ccc(C8CCC(=O)NC8=O)cc7OS(C)(=O)=O)CC6)CC5)C4)c(=O)c3c2)c1C#N (stereo partly drawn) [drawing 1182] |  | 60 to 95 | > 10 | GI50 [1, 5]: > 10 µM
CCN(C)S(=O)(=O)Nc1ccc(F)c(Oc2ccc3ncn([C@H]4COC5(CCN(C(=O)CN6CCN(c7ccc(C8CCC(=O)NC8=O)cc7OS(=O)(=O)F)CC6)CC5)C4)c(=O)c3c2)c1C#N (stereo partly drawn) [drawing 1183] |  |  | > 10 | CTGlo A375.11 96 hours IP nM ([1]; 96 hours, IP): ** (<10 μM and >1 μM is **); CTGlo A375.11 96 hours Emax [1, 3]: ** (<95% and >60% is **)
CCN(C)S(=O)(=O)Nc1ccc(F)c(Oc2ccc3ncn([C@H]4COC5(CCN(C(=O)CN6CCC(c7ccc(OC8CCC(=O)NC8=O)cc7OS(C)(=O)=O)CC6)CC5)C4)c(=O)c3c2)c1C#N (stereo partly drawn) [drawing 1184] |  | 60 to 95 | > 10 | GI50 [1, 5]: > 10 µM
CCN(C)S(=O)(=O)Nc1ccc(F)c(Oc2ccc3ncn([C@@H]4COC5(CCN(C(=O)CN6CCN(c7ccc(N8CCC(=O)NC8=O)cc7OS(=O)(=O)F)CC6)CC5)C4)c(=O)c3c2)c1C#N [drawing 1185] | > 10 | 60 to 95 | > 10 | 
CCN(C)S(=O)(=O)Nc1ccc(F)c(Oc2ccc3ncn([C@@H]4COC5(CCN(C(=O)CN6CCC(c7ccc(OC8CCC(=O)NC8=O)cc7OS(=O)(=O)F)CC6)CC5)C4)c(=O)c3c2)c1C#N (stereo partly drawn) [drawing 1186] | > 10 | 60 to 95 | > 10 | 
CCN(C)S(=O)(=O)Nc1ccc(F)c(Oc2ccc3ncn([C@@H]4COC5(CCN(C(=O)CN6CCC(c7ccc(OC8CCC(=O)NC8=O)cc7OS(C)(=O)=O)CC6)CC5)C4)c(=O)c3c2)c1C#N (stereo partly drawn) [drawing 1187] |  | 60 to 95 | > 10 | GI50 [1, 5]: > 10 µM
CCN(C)S(=O)(=O)Nc1ccc(F)c(Oc2ccc3ncn([C@@H]4COC5(CCN(C(=O)CN6CCC(c7ccc(NC8CCC(=O)NC8=O)cc7OS(C)(=O)=O)CC6)CC5)C4)c(=O)c3c2)c1C#N (stereo partly drawn) [drawing 1188] |  | > 95 | > 10 | GI50 [1, 5]: > 10 µM
CCN(C)S(=O)(=O)Nc1ccc(F)c(Oc2ccc3ncn([C@@H]4COC5(CCN(C(=O)CN6CCC(c7ccc(C8CCC(=O)NC8=O)cc7OS(=O)(=O)F)CC6)CC5)C4)c(=O)c3c2)c1C#N (stereo partly drawn) [drawing 1231] |  |  |  | HIBIT-Degradation 293T.114 GSPT1 24 hours IP nM (GSPT1): ** (<10 μM and >1 μM is **); DC50 (GSPT1): > 10000 nM; Emax (GSPT1): < 60%
CCN(C)S(=O)(=O)Nc1ccc(F)c(Oc2ccc3ncn([C@H]4COC5(CCN(C(=O)CN6CCN(c7ccc(C8CCC(=O)NC8=O)cc7OS(=O)(=O)F)CC6)CC5)C4)c(=O)c3c2)c1C#N (stereo partly drawn) [drawing 1232] |  |  |  | HIBIT-Degradation 293T.114 GSPT1 24 hours IP nM (GSPT1): ** (<10 μM and >1 μM is **); DC50 (GSPT1): > 10000 nM; Emax (GSPT1): 60 to 95%
